Consider twelve compounds from ChEMBL document CHEMBL1201862, “PubChem BioAssay data set” (2004).

SMILES strings stand for the structures.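 Dose response: 5 concentrations. Exposure: 48 h. Format: 96-well plates. Endpoint: linear interpolation; highest concentration if not reached. Here, GI50 denotes the concentration required for 50% inhibition of growth.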 The source made the active and inactive calls. No stated cut-off is given here; in the data, active = GI50 up to about 1.1 µM and inactive = higher.

Assay in all cases: NCI-60 cell line screen, 48 h
Test [1] has as its system M19-MEL.
Test [2] concerns LXFL 529.
Test [3] concerns SN12C.
The subject of test [4] is HCT-15.
The test system of test [5] is NCI-H460.
The subject of test [6] is EKVX.
The test system of test [7] is U-251.
In test [8] the test system is UACC-62.
The test system of test [9] is SNB-19.
The test system of test [10] is OVCAR-8.
The subject of test [11] is SW-620.
In test [12] the test system is SNB-75.
For test [13], the system named is KM12.
Test [14] has as its system SK-MEL-2.
The test system of test [15] is OVCAR-3.
The test system of test [16] is MOLT-4.
In test [17] the test system is SF-295.

`Cc1ccccc1C1=C(C(=O)Nc2ccc(Cl)c(Cl)c2)NC(=S)NC1N` (stereo unspecified): the GI50 in test [1] was > 100 µM (inactive); in test [2] it was > 100 µM (inactive); in [3], > 100 µM (inactive); in [4] it was more than 100 µM; in test [5], > 100 µM (inactive); in test [6], > 100 µM (inactive). Further, the GI50 in [7], in [8], in [9], in [10], in test [11] and in test [12] was > 100 µM (inactive) throughout. Further, the GI50 in test [13], in test [14], in [15] and in test [16] was > 100 µM (inactive) in each case.

Regarding `Cc1ccccc1C1=[N+]([O-])c2ccccc2C1=O`, the GI50 is 15.2 µM (inactive) in [1]; 14.9 µM (inactive) in test [2]; 17.7 µM (inactive) in test [3]; 14.4 µM in test [4]; 19.7 µM (inactive) in test [5]; 21 µM (inactive) in test [6]. Besides, the GI50 in test [7] is 16.9 µM (inactive); in test [8], 20.1 µM (inactive); in test [9], 46.1 µM (inactive); in [10] it was 16.7 µM (inactive); in test [11] it was 26.4 µM (inactive); in [12], 20.2 µM (inactive). For the same compound, the GI50 is 13.2 µM (inactive) in [13]; 3.22 µM (inactive) in test [14]; 23.7 µM (inactive) in test [17]; 12.7 µM (inactive) in test [15]; 19 µM (inactive) in [16].

Consider `CNC(=S)N/N=C1\CC(c2ccccc2)Oc2ccccc21` (stereo unspecified), for which the GI50 in test [1] was 91.8 µM (inactive); in test [2] it was > 100 µM (inactive); in test [3] it was > 100 µM (inactive); in [5], > 100 µM (inactive); in test [6] it was > 100 µM (inactive); in test [7], > 100 µM (inactive). The GI50 in test [8], in test [9], in [10], in test [11], in test [12] and in test [13] was > 100 µM (inactive) each time. Moreover, the GI50 in test [14] was > 100 µM (inactive); in test [17], > 100 µM (inactive); in test [15], 34.8 µM (inactive); in test [16], > 100 µM (inactive).

Consider `C/C=C1\CN2CCc3c([nH]c4ccccc34)C2CC1CCO` (stereo unspecified), for which the GI50 in test [1] is > 100 µM (inactive); in test [2], > 100 µM (inactive); in test [3] it was > 100 µM (inactive); in test [4], more than 100 µM; in [5], > 100 µM (inactive); in [6], > 100 µM (inactive). In addition, the GI50 is > 100 µM (inactive) in test [7]; > 100 µM (inactive) in test [9]; > 100 µM (inactive) in test [10]; > 100 µM (inactive) in [11]; 28.8 µM (inactive) in [12]; > 100 µM (inactive) in [13]. Further, the GI50 in test [14], in test [17], in test [15] and in test [16] was > 100 µM (inactive) each time.

In the case of `CC[P+]1(c2ccccc2)CCCCC1`, the GI50 in [1] was > 100 µM (inactive); in test [2] it was > 100 µM (inactive); in [3] it was > 100 µM (inactive); in test [4], more than 100 µM; in [5] it was > 100 µM (inactive); in [6], > 100 µM (inactive). The GI50 in [7], in [8], in test [9], in test [10], in [11] and in test [12] was > 100 µM (inactive) throughout. Moreover, the GI50 in test [13], in test [14], in [17], in [15] and in test [16] was > 100 µM (inactive) throughout.

On to `CCSc1nc2n(c(=S)n1)CCN2C`, for which the GI50 in test [1] is 13.5 µM (inactive); in test [2], 13.4 µM (inactive); in [3], 19.6 µM (inactive); in [4], 17.5 µM; in [5], 21.1 µM (inactive); in [6], 28.4 µM (inactive). For the same compound, the GI50 was 19.8 µM (inactive) in test [7]; 12.1 µM (inactive) in test [8]; 20.6 µM (inactive) in [9]; 20.7 µM (inactive) in test [10]; 19.7 µM (inactive) in [11]; 15.5 µM (inactive) in test [12]. Further, the GI50 was 21.4 µM (inactive) in test [13]; 19.1 µM (inactive) in [14]; 21.9 µM (inactive) in test [17]; 20 µM (inactive) in [15]; 12.2 µM (inactive) in [16].

Regarding `CN(C)CCN(C)C(=O)C1CCCN1C(=O)OCc1ccccc1` (stereo unspecified), the GI50 in test [1] was > 100 µM (inactive); in test [2], > 100 µM (inactive); in test [3], > 100 µM (inactive); in [4], more than 100 µM; in test [5], > 100 µM (inactive); in test [6], > 100 µM (inactive). In addition, the GI50 in test [7], in test [8], in [9], in [10], in [11] and in [12] was > 100 µM (inactive) in each case. The GI50 in [14], in test [17], in test [15] and in test [16] was > 100 µM (inactive) each time.

With `Oc1cc(O)c(Oc2cccc(O)c2O)c(O)c1`, the GI50 is 21.1 µM (inactive) in test [1]; > 100 µM (inactive) in test [2]; > 100 µM (inactive) in test [3]; more than 100 µM in test [4]; > 100 µM (inactive) in test [5]; > 100 µM (inactive) in [6]. The GI50 in [7] was > 100 µM (inactive); in test [8] it was 35.6 µM (inactive); in test [9] it was > 100 µM (inactive); in [10], > 100 µM (inactive); in test [11], 55.6 µM (inactive); in test [12], 45.8 µM (inactive). Also, the GI50 in [13] is > 100 µM (inactive); in test [14] it was 37.8 µM (inactive); in test [17], > 100 µM (inactive); in test [15] it was 73.3 µM (inactive); in [16], > 100 µM (inactive).

Consider `Cc1cccc(NC2=NC(=O)C(CC(=O)Nc3ccccc3Cl)S2)c1` (stereo unspecified), for which the GI50 in [1] was > 100 µM (inactive); in test [2], > 100 µM (inactive); in test [3], > 100 µM (inactive); in test [4], more than 100 µM; in test [5], > 100 µM (inactive); in [6] it was > 100 µM (inactive). Further, the GI50 in test [8], in test [9], in [10], in [11], in test [12] and in [14] was > 100 µM (inactive) in each case. The GI50 in test [17], in test [15] and in [16] was > 100 µM (inactive) throughout.

Regarding `O=C1CSC(C(/N=N/c2ccccc2)=C2Nc3ccccc3N2)=N1`, the GI50 in test [1] is 36.7 µM (inactive); in test [2] it was 34 µM (inactive); in test [3], 66.8 µM (inactive); in test [4], 54.6 µM; in test [5], 38.6 µM (inactive); in [6], 31.1 µM (inactive). Also, the GI50 is 97.9 µM (inactive) in test [7]; 31.8 µM (inactive) in [8]; 31.9 µM (inactive) in test [9]; 39.1 µM (inactive) in [10]; 93.5 µM (inactive) in test [11]; 34.4 µM (inactive) in [12]. Besides, the GI50 in test [13] was 66.1 µM (inactive); in [14], 53.3 µM (inactive); in test [17], 22.1 µM (inactive); in test [15], 27.4 µM (inactive); in test [16], 10 µM (inactive).

For the compound `CCOC(=O)C1=C(Nc2cccc3ccccc23)OC/C1=N\NC(=O)c1ccccc1O`, the GI50 is 19.1 µM (inactive) in [1]; 20.3 µM (inactive) in test [2]; 23.4 µM (inactive) in test [3]; 14.7 µM in [4]; 14.8 µM (inactive) in [5]; 21.3 µM (inactive) in [6]. The GI50 in test [7] was 23.7 µM (inactive); in test [8], 6.53 µM (inactive); in test [9] it was 22.1 µM (inactive); in test [10] it was 17 µM (inactive); in test [11] it was 18.8 µM (inactive); in test [12], 3.39 µM (inactive). Further, the GI50 in test [13] was 25.3 µM (inactive); in [14], 29.8 µM (inactive); in test [17], 22.8 µM (inactive); in [15], 10.6 µM (inactive); in test [16] it was 12.6 µM (inactive).

For `BrC(Br)([P+](c1ccccc1)(c1ccccc1)c1ccccc1)[P+](c1ccccc1)(c1ccccc1)c1ccccc1`, the GI50 in [1] is 13.3 µM (inactive); in test [2] it was 15.2 µM (inactive); in test [3], 22.7 µM (inactive); in test [4], 20.4 µM; in test [5] it was 22.8 µM (inactive); in test [6] it was 19.9 µM (inactive). The GI50 in test [7] was 20.3 µM (inactive); in test [8] it was 14.6 µM (inactive); in test [10], 13.1 µM (inactive); in [11], 12.2 µM (inactive); in [12], 19.4 µM (inactive); in [14], 16.5 µM (inactive). Moreover, the results for the GI50 in [17], in [15] and in test [16] were 29.4 µM (inactive), 11.9 µM (inactive) and 7.91 µM (inactive), respectively.
